From patent US10174013B2, “Benzimidazole derivatives as kinase inhibitors” (SELVITA S.A., priority 2012, dated 2019)
Where a name gives a salt, the structure may show the parent alone.

How the values were obtained:
Pim-1 = Pim-1 (Homo sapiens (Human), UniProt P11309); assay: ADP-Glo Kinase Assay, Pim-1; type: biochemical; conditions: 1 μM compound; read-out: Pim-1 % INH (1 μM)
In short: (§1)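 ADP-Glo luminescent ADP detection of human kinase activity in 5 mM MOPS pH 7.5, 5 mM MgCl2, 0.4 mM EDTA, 1.5 mM DTT. ATP at each kinase's apparent Km; compounds diluted to 1000 nM in assay buffer. Percent inhibition from normalised luminescence.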

MOLM16 cells = assay: Growth inhibition, MTS assay, MOLM16; type: cell-based, Human; conditions: Homo sapiens, MOLM16, 72 h, MTS cell viability, read-out: MOLM 16 ED50
Text: (§2) The following cell lines, were obtained and used in tests as outlined below: • Human myelomonocytic, biphenotypic leukemia MV4-11 cells (harboring a Flt3-ITD mutation); • Human Acute Myeloid Leukemia MOLM16 cells; • Human Acute Myeloid Leukemia MOLM13 cells (harboring a Flt3-ITD mutation); • Human Myeloid Leukemia KG-1 cells; • Human erythroleukemia HEL92 cells; • Human mantle cell lymphoma Jeko-1 cells; • Human hepatocellular carcinoma HepG2 cells; and • Human colon adenocarcinoma SW-480 cells.
(§3) The assays were carried out according to the following protocol, which is described as an example for the MV4-11 cells:
(§4) Ten thousand MV4-11 cells were inoculated into each well of a 96-well microplate (manufactured by Corning Corp.) using Iscove's MDM medium (culture medium) containing 10% fetal calf serum (FCS). The same day, a dimethyl sulfoxide (DMSO) solution of each test compound prepared in a concentration of 10 mmol/L was further diluted with DMSO to the desired concentrations (0.1, 0.5, 1, 2.5, 5 and 10 micromol/L), and the diluted solution was added to each well. The individual wells were further cultured in 5% carbon dioxide at 37° C. for 72 hours. […] Briefly, 10 μl MTS (3-(4,5-Dimethyl-2-thiazolyl)-5-(carboxymethoxyphenyl)-2-(4-sulfophenyl)-2H-tetrazolium was added to each well, and culturing was performed in 5% carbon dioxide at 37° C. for 2 hours. After this incubation and using a microplate spectrophotometer (Synergy 2 multi-mode microplate reader (BioTek)), the absorbance of each well was measured at 490 nm. The value for cells not incubated with a test compound was designated as 100%. By comparing these values with the absorbance difference obtained at the well in which each test compound was added, the cell viability (% viability) after treatment with the test compound was calculated.

MV4-11 cells = assay: Growth inhibition, MTS assay, MV4-11; type: cell-based, Human; conditions: Homo sapiens, MV4-11, 72 h, MTS cell viability, read-out: MV4-11 ED50
DYRK1 = DYRK1 (Homo sapiens (Human), UniProt Q13627); assay: ADP-Glo Kinase Assay, DYRK1; type: biochemical; conditions: 1 μM compound; read-out: DYRK1A % INH (1 μM)
In short: as §1

Pim-2 = Pim-2 (Homo sapiens (Human), UniProt Q9P1W9); assay: ADP-Glo Kinase Assay, Pim-2; type: biochemical; conditions: 1 μM compound; read-out: Pim-2 % INH (1 μM)
Chain of Pim-2 (Q9P1W9 whole entry): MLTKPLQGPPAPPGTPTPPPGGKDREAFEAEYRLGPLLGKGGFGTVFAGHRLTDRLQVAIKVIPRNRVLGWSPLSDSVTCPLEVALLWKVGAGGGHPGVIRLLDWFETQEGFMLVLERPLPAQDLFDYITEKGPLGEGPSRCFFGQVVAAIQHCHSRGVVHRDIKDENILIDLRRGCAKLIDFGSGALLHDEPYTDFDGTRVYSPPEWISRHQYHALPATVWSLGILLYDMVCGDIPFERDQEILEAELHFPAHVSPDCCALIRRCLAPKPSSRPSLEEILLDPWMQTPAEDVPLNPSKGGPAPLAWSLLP
In short: as §1

Pim-3 = Pim-3 (Homo sapiens (Human), UniProt Q86V86); assay: ADP-Glo Kinase Assay, Pim-3; type: biochemical; conditions: 1 μM compound; read-out: Pim-3 % INH (1 μM)
In short: as §1

Jeko-1 cells = assay: Growth inhibition, MTS assay, Jeko-1; type: cell-based, Human; conditions: Homo sapiens, JeKo-1; 72 hours, MTS cell viability; read-out: Jeko-1 ED50
Text: as §2, §3, §4

HEL92 cells = assay: Growth inhibition, MTS assay, HEL92; type: cell-based, Human; conditions: Homo sapiens, 72 h, MTS cell viability, read-out: HEL92 ED50
hERG potassium channel = hERG potassium channel (Homo sapiens (Human), UniProt Q12809); assay: hERG automated patch clamp assay (QPatch HT)
Chain of hERG potassium channel (Q12809 whole entry): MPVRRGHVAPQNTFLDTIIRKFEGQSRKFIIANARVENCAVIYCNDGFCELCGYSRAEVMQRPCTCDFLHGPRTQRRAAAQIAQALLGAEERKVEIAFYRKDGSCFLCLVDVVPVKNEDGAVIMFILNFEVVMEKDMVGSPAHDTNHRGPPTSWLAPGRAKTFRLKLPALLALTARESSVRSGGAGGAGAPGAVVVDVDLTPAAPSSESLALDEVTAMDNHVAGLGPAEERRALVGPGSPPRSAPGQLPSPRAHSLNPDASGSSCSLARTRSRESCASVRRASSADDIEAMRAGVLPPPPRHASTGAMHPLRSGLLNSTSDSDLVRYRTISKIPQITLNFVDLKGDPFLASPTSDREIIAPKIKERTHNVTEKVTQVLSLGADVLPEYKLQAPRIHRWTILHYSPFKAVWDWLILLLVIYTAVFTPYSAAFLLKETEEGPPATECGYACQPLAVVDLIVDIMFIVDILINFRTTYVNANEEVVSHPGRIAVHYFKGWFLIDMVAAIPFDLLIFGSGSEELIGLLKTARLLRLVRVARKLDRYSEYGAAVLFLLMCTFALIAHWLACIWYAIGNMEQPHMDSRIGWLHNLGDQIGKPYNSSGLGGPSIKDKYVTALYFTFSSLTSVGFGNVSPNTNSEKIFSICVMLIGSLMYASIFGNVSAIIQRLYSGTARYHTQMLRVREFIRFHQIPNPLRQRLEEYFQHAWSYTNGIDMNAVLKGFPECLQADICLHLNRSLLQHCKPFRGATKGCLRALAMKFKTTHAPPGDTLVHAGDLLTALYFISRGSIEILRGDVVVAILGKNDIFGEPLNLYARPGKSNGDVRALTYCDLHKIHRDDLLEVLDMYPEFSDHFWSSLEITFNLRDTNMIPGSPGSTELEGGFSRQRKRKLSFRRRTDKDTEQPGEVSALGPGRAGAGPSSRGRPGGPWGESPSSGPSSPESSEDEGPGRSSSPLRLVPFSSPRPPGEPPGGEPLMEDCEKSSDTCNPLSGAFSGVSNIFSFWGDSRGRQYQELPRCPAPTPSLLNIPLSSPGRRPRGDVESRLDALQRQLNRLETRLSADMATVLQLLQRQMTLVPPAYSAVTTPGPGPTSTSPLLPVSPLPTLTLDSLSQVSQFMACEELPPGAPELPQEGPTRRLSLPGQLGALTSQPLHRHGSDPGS
Experimental: The hERG (human ether-A-go-go-related gene) channel corresponds to an important anti-target for potential new drugs since its inhibition may lead to sudden death. In order to establish whether the compounds of the present invention act on hERG, the following experiment was carried out.
The in vitro effects of the compounds indicated in Table 5 on the hERG potassium channel current (a surrogate for Iκr, the rapidly activating, delayed rectifier cardiac potassium current) expressed in mammalian cells were evaluated at room temperature using the QPatch HT® (Sophion Bioscience A/S, Denmark), an automatic parallel patch clamp system. Each compound indicated in Table 5 was evaluated at 0.1, 1, 3, 10 and 30 μM with each concentration tested in a minimum of two cells (n≥2). The duration of exposure to each compound concentration was 3 minutes.

HepG2 cells = assay: Growth inhibition, MTS assay, HepG2; type: cell-based, Human; conditions: Homo sapiens, HepG2, 72 h, MTS cell viability, read-out: HepG2 ED50
SW-480 cells = assay: Growth inhibition, MTS assay, SW-480; type: cell-based, Human; conditions: Homo sapiens, SW480; 72 hours, MTS cell viability; read-out: SW-480 ED50
CDK2/E = CDK2/E (Homo sapiens (Human), UniProt P24941); assay: ADP-Glo Kinase Assay, CDK2/E; type: biochemical; conditions: 1 μM compound; read-out: CDK2/E % INH (1 μM)
In short: as §1

FLT3wt = FLT3wt (Homo sapiens (Human), UniProt P36888); assay: ADP-Glo Kinase Assay, Flt3 wt; type: biochemical; conditions: 1 μM compound; read-out: Flt3wt % INH (1 μM)
Chain of FLT3wt (P36888 27-993): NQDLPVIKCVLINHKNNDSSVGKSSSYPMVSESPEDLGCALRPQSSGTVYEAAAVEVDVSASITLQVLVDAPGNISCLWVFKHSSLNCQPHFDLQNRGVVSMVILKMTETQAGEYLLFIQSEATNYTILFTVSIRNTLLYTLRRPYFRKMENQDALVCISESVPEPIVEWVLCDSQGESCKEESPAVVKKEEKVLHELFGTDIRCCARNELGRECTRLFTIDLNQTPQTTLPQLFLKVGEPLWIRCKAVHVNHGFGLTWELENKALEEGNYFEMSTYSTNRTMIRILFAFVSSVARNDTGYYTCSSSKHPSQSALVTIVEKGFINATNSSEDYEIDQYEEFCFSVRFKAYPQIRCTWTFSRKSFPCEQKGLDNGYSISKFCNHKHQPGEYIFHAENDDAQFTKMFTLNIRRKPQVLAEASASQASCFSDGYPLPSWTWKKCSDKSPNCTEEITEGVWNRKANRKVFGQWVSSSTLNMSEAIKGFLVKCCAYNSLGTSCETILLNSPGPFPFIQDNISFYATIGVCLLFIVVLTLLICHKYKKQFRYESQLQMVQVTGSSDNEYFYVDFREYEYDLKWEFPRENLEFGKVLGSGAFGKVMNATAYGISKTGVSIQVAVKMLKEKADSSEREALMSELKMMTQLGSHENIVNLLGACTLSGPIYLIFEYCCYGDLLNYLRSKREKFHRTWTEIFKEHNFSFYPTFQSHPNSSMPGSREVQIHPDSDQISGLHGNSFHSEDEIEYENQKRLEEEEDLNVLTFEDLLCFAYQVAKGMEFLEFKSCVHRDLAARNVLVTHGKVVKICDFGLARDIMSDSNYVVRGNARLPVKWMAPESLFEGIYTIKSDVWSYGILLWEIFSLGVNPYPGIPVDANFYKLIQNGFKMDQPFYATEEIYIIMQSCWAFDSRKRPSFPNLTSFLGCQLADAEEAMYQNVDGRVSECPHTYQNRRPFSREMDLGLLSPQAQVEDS
In short: as §1

Chain of Pim-1 (P11309 whole entry): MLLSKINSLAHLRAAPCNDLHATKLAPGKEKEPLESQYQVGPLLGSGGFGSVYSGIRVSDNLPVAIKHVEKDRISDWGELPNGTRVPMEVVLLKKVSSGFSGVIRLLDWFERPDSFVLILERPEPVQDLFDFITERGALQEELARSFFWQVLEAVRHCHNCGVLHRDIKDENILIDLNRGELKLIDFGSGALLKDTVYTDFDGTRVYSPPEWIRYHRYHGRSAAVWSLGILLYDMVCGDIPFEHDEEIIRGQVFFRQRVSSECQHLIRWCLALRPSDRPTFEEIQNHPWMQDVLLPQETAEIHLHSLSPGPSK

SMILES: NC(=O)Cn1c(N2CCNCC2)nc2c([N+](=O)[O-])c(Br)c(Br)cc21 [Example 2L, 2-[5,6-dibromo-4-nitro-2-(piperazin-1-yl)-1H-1,3-benzodiazol-1-yl]acetamide]
- inhibition at 1 µM (Pim-1): 67%
- IC50 (MOLM16 cells): 3.1 µM
- IC50 (MV4-11 cells): 6.1 µM

SMILES: NCCn1c(N2CC[C@H](N)C2)nc2c([N+](=O)[O-])c(Br)c(Br)cc21 [Example 3B, (3S)-1-[1-(2-aminoethyl)-5,6-dibromo-4-nitro-1H-1,3-benzodiazol-2-yl]pyrrolidin-3-amine]
- inhibition at 1 µM (DYRK1): 18%
- inhibition at 1 µM (Pim-1): > 95%
- IC50 (MOLM16 cells): 1.5 µM
- IC50 (MV4-11 cells): 1.3 µM

SMILES: CCn1c(N2CCNCC2)nc2c(C#N)c(Br)c(Br)cc21 [Example 8A, 5,6-dibromo-1-ethyl-2-(piperazin-1-yl)-1H-1,3-benzodiazole-4-carbonitrilehydrochloride]
- inhibition at 1 µM (Pim-2): 14%
- inhibition at 1 µM (Pim-3): 92%
- IC50 (Jeko-1 cells): 1.4 µM
- inhibition at 1 µM (DYRK1): 46%
- IC50 (HEL92 cells): 4.8 µM
- inhibition at 1 µM (Pim-1): 82%
- IC50 (hERG potassium channel): 0.77 µM
- IC50 (HepG2 cells): 1.7 µM
- IC50 (SW-480 cells): 4.7 µM
- inhibition at 1 µM (CDK2/E): < 5%
- inhibition at 1 µM (FLT3wt): 11%
- IC50 (MV4-11 cells): 1.3 µM

SMILES: CC(C)n1c(N2CCNCC2)nc2c([N+](=O)[O-])c(C(F)(F)F)c(Br)cc21 [Example 9B, 6-bromo-4-nitro-2-(piperazin-1-yl)-1-(propan-2-yl)-5-(trifluoromethyl)-1H-1,3-benzodiazole]
- inhibition at 1 µM (DYRK1): 33%
- inhibition at 1 µM (Pim-1): 59%
- IC50 (HepG2 cells): 2.7 µM
- IC50 (MOLM16 cells): 7.29 µM
- IC50 (MV4-11 cells): 5.9 µM

SMILES: CC(C)n1c(N2C[C@H]3C[C@@H]2CN3)nc2c([N+](=O)[O-])c(Br)c(Br)cc21 [Example 22AE, 5,6-dibromo-2-[(1R,4R)-2,5-diazabicyclo[2.2.1]heptan-2-yl]-4-nitro-1-(propan-2-yl)-1H-1,3-benzodiazole]
- inhibition at 1 µM (DYRK1): 95%
- inhibition at 1 µM (Pim-1): 76%
- IC50 (HepG2 cells): > 10 µM
- IC50 (MOLM16 cells): 2.8 µM
- IC50 (MV4-11 cells): 2.7 µM
